The values that follow come from article PMC5036131, “Fragment-based discovery of a new family of non-peptidic small-molecule cyclophilin inhibitors with potent antiviral activities” (Nature Communications, 2016).

In one data set the target is T1, CypA (Homo sapiens, UniProt P62937).
T1 construct: hexahistidine tag (His-Tag) (C); made in house; host or cells: E. coli C41(DE3)
The data set is described as follows: PPIase enzyme assay (chymotrypsin-coupled), CypA. It counts as biochemical. As to conditions: 20 °C, mean±s.d. The method, then:
(§1) CypA and CypB proteins carrying a hexahistidine tag (His-Tag) at their carboxy terminus were expressed in E. coli and purified. Briefly, cultures of C41(DE3) cells were grown at 37 °C for 1 h until the culture reached an OD of 0.6 at 600 nm and then induced with 1 mM isopropyl-β-D-thiogalactopyranoside for 4 h at 37 °C (CypA) or overnight at 22 °C (CypB). Cell pellets were resuspended in a lysis buffer 20 mM NaH2PO4 pH 7.8, 300 mM NaCl, 7 mM β-mercaptoethanol, 1 mg ml^−1 lysozyme, 0.1 U μl^−1 desoxyribonuclease and complete protease inhibitor tablets (Roche Diagnostics Corporation, Indianapolis, Indiana). […] The bound protein was eluted in 1 ml fractions with a buffer composed of 20 mM NaH2PO4 pH 7.8, 300 mM NaCl, 250 mM imidazole, 7 mM β-mercaptoethanol and 10% glycerol, monitored by the Bradford colorimetric assay. The purity of each cyclophilin was determined by Coomassie-stained SDS–PAGE analysis.

Another data set concerns the target T2, CypB (Homo sapiens, UniProt P23284).
T2 construct: hexahistidine tag (His-Tag) (C); made in house; host or cells: E. coli C41(DE3)
The data set is described as follows: biochemical. It counts as biochemical. As for the experimental part: as §1

A further data set relates to HCV genotype 1b replicon. The data set is described as follows: microbe, parasite or virus in culture. It counts as cell-based, hepatitis C virus.
A further data set concerns HCoV-229E. In words: Anti-human coronavirus 229E activity in MRC5 cells. It counts as cell-based. The note with it: 72 h, viral cytopathic effect. (In general: Damage to the host cells serves as the signal in cytopathic effect assays.)
Data set [1] can be described thus: in vitro. The note with it: human.
Data set [2] can be described thus: in vitro. The note with it: human. This is another data set of the same source.
A further data set deals with CypD (Homo sapiens, UniProt P30405, K175I). In words: PPIase enzyme assay (chymotrypsin-coupled), CypD. As to conditions: for LE (ligand efficiency): Supplementary Figure 1, NMR fragment hits.
Sequence of CypD (P30405 44-207 K175I): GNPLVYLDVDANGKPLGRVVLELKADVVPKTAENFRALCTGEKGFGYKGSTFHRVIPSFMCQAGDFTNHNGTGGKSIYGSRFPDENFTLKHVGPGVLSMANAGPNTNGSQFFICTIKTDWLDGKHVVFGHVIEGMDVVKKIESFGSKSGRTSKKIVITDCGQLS
For data set [3], the target named is cyclophilin PPIase activity. In words: PPIase enzyme assay, cyclophilin not specified. It is filed as biochemical, human. The note with it: compounds lacking the ester function; read-out: cyclophilin inhibition IC50.
Protocol: (§2) Cyclophilin PPIase activity was measured at 20 °C by using the standard chymotrypsin-coupled assay. […] Then, 5 μl of 50 mg ml^−1 chymotrypsin in 1 mM HCl was added. […] After a delay from the onset of mixing, the absorbance of p-nitroaniline was followed at 390 nm until the reaction was complete (1 min). The final concentration of LiCl in the assay was 20 mM and TFE was present at a concentration of 4% (v/v). Absorbance readings were collected every 1 s by a spectrophotometer. For inhibition assessment, 5 μl of the tested compound in dimethyl sulfoxide (DMSO) was added to the cyclophilin solution in the assay buffer. […] The percentage inhibition of cyclophilin PPIase activity was calculated from the slopes and the values obtained represent the mean±s.d. of at least two independent measurements.
For the next data set, the system named is HIV-IIIb. The data set is described as follows: Anti-HIV activity in MT4 cells. It counts as cell-based, human immunodeficiency virus. As to conditions: 5 days.
The test system of another data set is MRC5 cells. In words: Cellular toxicity in MRC5 cells. As to conditions: read-out: MRC5 cells CC50; MRC5 cells.
Another data set deals with MT4 cells. The data set is described as follows: Cytotoxicity in uninfected MT4 cells. As to conditions: read-out: MT4 cells CC50.
The test system of the next data set is Huh7 cells. The data set is described as follows: Cellular toxicity in Huh7 replicon cells. The note with it: read-out: HCV genotype 1b replicon CC50; Huh7 cells. (Replicon systems follow genome replication, usually without infectious particles.)
The next data set relates to calcineurin. In words: Calcineurin phosphatase assay. It is filed as biochemical. As to conditions: binary complex with CypA, 1:1 molar ratio. The method, then:
The inhibition of calcineurin phosphatase activity was measured by measuring the dephosphorylation of p-nitrophenyl phosphate (R&D Systems, Minneapolis, USA), according to the manufacturer’s instructions. […] After p-nitrophenyl phosphate addition, the reaction was run for 35 min at 37 °C. The reaction was terminated by addition of BIOMOL green reagent and OD was measured at 630 nm. The results are the means of three independent experiments performed in duplicate. They are presented as the percentage of calcineurin activity relative to that in the inhibitor-free control.

Data set [4] has as its system IL-2 production in Jurkat cells. In words: Inhibition of IL-2 production in Jurkat cells. It is filed as cell-based. The note with it: stimulated Jurkat cells.
Protocol: Duplicate evaluations were included for each test concentration. […] After a 6 h incubation, sample supernatants were collected for measurement of IL-2 production using a commercial kit (Quantikine ELISA, R&D Systems).
The test system of the next data set is mPTP. The arrangement: method as in Panel M, Ahmed-Belkacem A, et al., manuscript in preparation. As to conditions: as a result of CypD inhibition; ref Panel M, Ahmed-Belkacem A, et al., manuscript in preparation; cited from earlier work.
The nature of data set [5]: Cellular toxicity in MRC5 cells. The note with it: human, MRC-5 cells.
The nature of data set [6]: Cellular toxicity in Huh7 replicon cells. As to conditions: human, Huh7 cells with HCV genotype 1b replicon.
[7] abbreviates: Hepatitis C virus, Huh-7, 72 h, read-out: HCV genotype 1b replicon EC50.
The mark [8] stands for this setting: PPIase enzyme assay, 20 °C, mean±s.d., read-out: CypB IC50.
[9] abbreviates: read-out: CypD IC50, PPIase enzyme assay, 20 °C, mean±s.d.
[10] abbreviates: Huh7 cells, 3 days, HCV RNA, read-out: HCV genotype 1b replicon EC50.
Setting [11] is: wild-type genotype 1b replicon, comparison with mutated replicons (Table 3), read-out: EC50 HCV (WT) subgenomic replicon.

Where two headings read alike, the source gives them in different places.

The IC50 is the concentration that inhibits the measured activity by half. The EC50 is the midpoint of the concentration-response curve.

T2 sequence (P23284 34-216): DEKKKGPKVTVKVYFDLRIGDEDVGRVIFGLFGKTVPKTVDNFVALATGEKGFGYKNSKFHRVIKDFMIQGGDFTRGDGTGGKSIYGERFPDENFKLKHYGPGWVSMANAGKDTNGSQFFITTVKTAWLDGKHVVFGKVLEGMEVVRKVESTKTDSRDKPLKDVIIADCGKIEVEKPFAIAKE
T1 sequence (P62937 whole entry): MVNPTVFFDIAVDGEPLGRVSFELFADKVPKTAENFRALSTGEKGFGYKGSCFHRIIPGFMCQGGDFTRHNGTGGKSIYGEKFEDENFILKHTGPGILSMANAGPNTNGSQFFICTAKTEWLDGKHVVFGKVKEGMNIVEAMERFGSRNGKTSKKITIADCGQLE
Protocol for CypD: as §2

Turning to `C/C=C/C[C@@H](C)[C@@H](O)[C@H]1C(=O)N[C@@H](CC)C(=O)N(C)[C@H](C)C(=O)N(CC)[C@@H](C(C)C)C(=O)N[C@@H](C(C)C)C(=O)N(C)[C@@H](CC(C)C)C(=O)N[C@@H](C)C(=O)N[C@H](C)C(=O)N(C)[C@@H](CC(C)C)C(=O)N(C)[C@@H](CC(C)C)C(=O)N(C)[C@@H](C(C)C)C(=O)N1C` [Alisporivir, alisporivir, reference compound], the IC50 against CypA came to 0.07 ± 0.003 µM; at CypB, 0.04 ± 0.012 µM; against CypD it was 0.03 ± 0.005 µM. Also, the EC50 in the data set with HCV genotype 1b replicon (setting [7]) is 10 ± 0.7 nM; with HCV genotype 1b replicon (Hepatitis C virus, Huh-7, read-out: EC50 HCV (WT) subgenomic replicon), 40 ± 0.5 nM; with HCoV-229E (Human coronavirus 229E) it was 2.6 ± 0.6 µM. Further, in the data set “in vitro [1]”, the CC50 stood at 32.3 ± 22 µM. The CC50 at 72 h in “in vitro [2]” turned out to be 9.7 ± 2.2 µM.

Turning to `Nc1ccc(CNC(=O)NCC(=O)N2CCCC2)cc1` [Compound 23], the IC50 (against CypA; at CypB (setting [8]); in data set [3]; on CypD (setting [9])) was more than 500 µM in each case.

In the case of `COc1ccccc1C1CCCN1C(=O)CNC(=O)NCc1ccc(N)cc1` (stereo not drawn) [Compound 24], the IC50 was found to be 2.8 ± 0.6 µM against CypA, 1.2 ± 0.1 µM on CypB (setting [8]) and 11.4 ± 3 µM on CypD (setting [9]).

Consider `Nc1ccc(CNC(=O)NCC(=O)N2CCCC2c2ccccc2Cl)cc1` (stereo not drawn) [Compound 25], for which the IC50 amounted to 3.4 ± 0.7 µM against CypA, 3.7 ± 1.4 µM at CypB (setting [8]) and 6.2 ± 2.3 µM on CypD (setting [9]).

As to `Nc1ccc(CNC(=O)NCC(=O)N2CCCC2c2ccccc2Br)cc1` (stereo not drawn) [Compound 26], the EC50 with HCV genotype 1b replicon (setting [10]) amounted to 6000 ± 700 nM; with HIV-IIIb it was 3.6 ± 0.8 µM; in the data set on HCoV-229E, 66.3 ± 24 µM. In addition, the CC50 was more than 100 µM with MRC5 cells, more than 53 µM in the data set with MT4 cells and more than 100 µM in the data set on Huh7 cells.

As to `CSc1ccccc1C1CCCN1C(=O)CNC(=O)NCc1ccc(N)cc1` (stereo not drawn) [Compound 27], the results for the IC50 against CypA and on CypD (setting [9]) were 0.4 ± 0.1 µM and 0.6 ± 0.1 µM, respectively. Moreover, the EC50 with HCV genotype 1b replicon (setting [10]) was 2700 ± 2500 nM; with HCV genotype 1b replicon (setting [11]), 5600 ± 700 nM; in the data set on HIV-IIIb it was 6.8 ± 2.3 µM; in the data set on HCoV-229E, 34.6 ± 18.3 µM. The CC50 in the data set with MRC5 cells was more than 100 µM; in the data set on MT4 cells, more than 53 µM; in the data set on Huh7 cells, more than 100 µM.

`Nc1ccc(CNC(=O)NCC(=O)N2CCCC2c2cccc3ccccc23)cc1` (stereo not drawn) [Compound 28]: the IC50 on CypA amounted to 1.5 ± 0.5 µM; on CypB (setting [8]), 1.8 ± 0.9 µM; at CypD (setting [9]), 1.4 ± 0.2 µM.

`CSc1ccccc1C1CCCN1C(=O)C(NC(=O)NCc1ccc(N)cc1)c1ccccc1` (stereo not drawn) [Compound 31]: the 50% inhibitory concentration (IC50) on CypA was 0.1 ± 0.07 µM; at CypB (setting [8]) it was 0.08 ± 0.04 µM; on CypD (setting [9]), 0.2 ± 0.08 µM. The “EC50 fold higher than the EC50 of alisporivir” value with HCV genotype 1b replicon (HCV genotype 1b replicon, Huh7 cells) was approximately 40. In addition, the EC50 was 400 ± 300 nM in the data set with HCV genotype 1b replicon (setting [10]), 300 ± 160 nM in the data set with HCV genotype 1b replicon (setting [11]), 44.7 ± 2.2 µM in the data set on HCoV-229E and more than 20 µM in [4]. Further, the “inhibition of calcineurin phosphatase activity” value with calcineurin was “no inhibition was observed”. Besides, the mPTP opening result in the data set with mPTP was “inhibits mPTP opening”. Also, the CC50 in the data set with MRC5 cells and in the data set with Huh7 cells was more than 100 µM each time.

Turning to `CCOC(=O)CNC(=O)NC1CCc2ccc(N)cc21` (stereo not drawn) [Compound 32], the IC50 on CypA worked out at 7.4 ± 6.8 µM; on CypB (setting [8]), 8.7 ± 1.5 µM; against CypD, 12.8 ± 2.5 µM. Also, the EC50 in the data set on HCV genotype 1b replicon (setting [7]) came out at 8000 ± 1300 nM; in the data set with HCoV-229E (Human coronavirus 229E) it was 71.5 ± 4.3 µM. This compound gave a CC50 at 72 h in data set [5] of more than 100 µM. The CC50 in data set [6] was more than 100 µM.

In the case of `COC(=O)CS(=O)(=O)c1ccccc1` [Fragment 1], on CypD, the “% CypD inhibition (%I) at 1 mM” value is reported as 40% and the “LE (ligand efficiency)” value is less than 0.29.

Turning to `O=S1(=O)CC=CC1` [Fragment 2], the “% CypD inhibition (%I) at 1 mM” value at CypD stood at 2%.

Regarding `Nc1ccc(C(=O)O)cc1` [Fragment 3], at CypD, the “% CypD inhibition (%I) at 1 mM” value amounted to 32% and the “LE (ligand efficiency)” value is less than 0.42.

In the case of `ON=Cc1ccccc1` [Fragment 8], on CypD, the “% CypD inhibition (%I) at 1 mM” value was 32% and the “LE (ligand efficiency)” value was less than 0.46.

Consider `Nc1ccc(S(=O)(=O)NC(=O)c2ccccc2)cc1` [Fragment 9], for which, at CypD, the “% CypD inhibition (%I) at 1 mM” value turned out to be 39% and the “LE (ligand efficiency)” value was less than 0.24.

For the compound `O=CN1CCCC1` [Fragment 13], the IC50 against CypA, at CypB (setting [8]) and at CypD (setting [9]) was more than 5000 µM throughout.

For the compound `O=C(NC(=O)c1c(F)cccc1Cl)NC1c2ccccc2-c2ccccc21` [TMN-355, reference compound], the IC50 at CypB (setting [8]) and on CypD (setting [9]) was more than 100 µM throughout. Moreover, in the data set on HCV genotype 1b replicon (setting [10]), the EC50 was more than 50000 nM. Moreover, the CC50 in the data set on MRC5 cells stood at 1.04 ± 0.46 µM; in the data set on Huh7 cells it was 4.48 ± 2.1 µM.
